Assay [1] deals with T1, 5'-methylthioadenosine/S-adenosylhomocysteine nucleosidase (Vibrio cholerae serotype O1 (strain ATCC 39315 / El Tor Inaba N16961), UniProt Q9KPI8).
T1 sequence (Q9KPI8 whole entry): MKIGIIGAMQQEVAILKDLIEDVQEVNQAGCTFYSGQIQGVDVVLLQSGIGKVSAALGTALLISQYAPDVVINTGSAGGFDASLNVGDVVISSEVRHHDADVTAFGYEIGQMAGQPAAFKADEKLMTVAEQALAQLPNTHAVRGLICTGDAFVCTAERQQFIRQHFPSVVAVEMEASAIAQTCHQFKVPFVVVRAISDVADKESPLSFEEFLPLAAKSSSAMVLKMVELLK
As to the kind of experiment: Binding affinity to His-tagged Vibrio cholerae recombinant MTAN expressed in Escherichia coli […].

Assay [2] is described as follows: Inhibition of Escherichia coli MTAN.
The test system of assay [3] is Escherichia coli. Put plainly: Ratio of Km to Ki for Escherichia coli MTAN.
The test system of assay [4] is Vibrio cholerae. As to the kind of experiment: Antimicrobial activity against Vibrio cholerae N16961 assessed as effect on cell growth up to 1 uM. In kind it is functional, organism-based.
The test system of assay [5] is Escherichia coli. As to the kind of experiment: Antibacterial activity Escherichia coli O157:H7 EDL933 assessed as induction of growth deffect at 0.5 uM after 16 hrs. In kind it is functional, organism-based.
Assay [6] concerns Escherichia coli. Put plainly: Antibacterial activity MTAN-deficient Escherichia coli assessed as induction of growth deffect at 0.5 uM after 16 hrs. In kind it is functional, organism-based.
Assay [7] addresses 5'-methylthioadenosine/S-adenosylhomocysteine nucleosidase (Escherichia coli O157:H7) (UniProt P0AF14). Put plainly: (§1) Inhibition of Escherichia coli O157:H7 EDL933 MTAN-mediated autoinducer-2 production assessed as inhibition of light induction in quorum-sensing Vibrio harveyi BB120 by luminescence induction assay.
Assay [8] addresses 5'-methylthioadenosine/S-adenosylhomocysteine nucleosidase (Escherichia coli O157:H7, UniProt P0AF14). The description is as §1.
Assay [9] concerns the target T2, 5'-methylthioadenosine/S-adenosylhomocysteine nucleosidase (Vibrio cholerae serotype O1 (strain ATCC 39315 / El Tor Inaba N16961)) (UniProt Q9KPI8).
T2 sequence (whole entry): T1 sequence (Q9KPI8 whole entry)
Conditions: 1 uM.

Assay [10] concerns the target T2, 5'-methylthioadenosine/S-adenosylhomocysteine nucleosidase (Vibrio cholerae serotype O1 (strain ATCC 39315 / El Tor Inaba N16961)). Conditions: 1 uM. This is another data set of the same source.
The subject of a further assay is Vibrio harveyi. Put plainly: Inhibition of autoinducer-2 production in Vibrio harveyi BB120 assessed as inhibition of light induction by luminescence induction assay. In kind it is functional. Conditions: Vibrio harveyi ATCC BAA-1116.
Assay [11] deals with Vibrio cholerae. As to the kind of experiment: Antibacterial activity against Vibrio cholerae N16961 at 1 uM. In kind it is functional, organism-based.
The subject of assay [12] is Vibrio cholerae. Put plainly: Antibacterial activity against Vibrio cholerae N16961 at 2.5 uM. In kind it is functional, organism-based.
Assay [13] deals with Escherichia coli. As to the kind of experiment: Antibacterial activity Escherichia coli O157:H7 EDL933 at 1 uM. In kind it is functional, organism-based.
In assay [14] the test system is Escherichia coli. Put plainly: Antibacterial activity Escherichia coli O157:H7 EDL933 at 2.5 uM. In kind it is functional, organism-based.
The subject of assay [15] is Escherichia coli. As to the kind of experiment: Inhibition of Escherichia coli O157:H7 EDL933 biofilm production at 1 uM after 24 hrs. As to conditions: O157:H7 EDL933, 24 h. In kind it is functional.
Assay [16] concerns Vibrio cholerae. As to the kind of experiment: Inhibition of Vibrio cholerae N16961 biofilm production at 1 uM after 24 hrs. In kind it is functional. As to conditions: N16961, 24 h.
Assay [17] concerns Escherichia coli. Put plainly: Antibacterial activity against Escherichia coli O157:H7 EDL933 at 1 uM after 24 hrs. In kind it is functional, organism-based.
The test system of assay [18] is Vibrio cholerae. As to the kind of experiment: Antibacterial activity against Vibrio cholerae N16961 at 1 uM after 24 hrs. In kind it is functional, organism-based.

Active and inactive are the calls of the source. The rule behind the calls is not given here.

Chain of 5'-methylthioadenosine/S-adenosylhomocysteine nucleosidase (Escherichia coli O157:H7) (P0AF14 whole entry, looked up): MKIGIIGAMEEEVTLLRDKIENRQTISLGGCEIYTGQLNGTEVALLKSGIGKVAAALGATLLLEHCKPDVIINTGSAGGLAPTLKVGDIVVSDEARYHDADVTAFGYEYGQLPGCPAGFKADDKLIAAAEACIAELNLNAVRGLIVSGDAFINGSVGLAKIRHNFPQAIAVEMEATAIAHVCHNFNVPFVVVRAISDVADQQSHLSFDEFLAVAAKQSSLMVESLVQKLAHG
Chain of 5'-methylthioadenosine/S-adenosylhomocysteine nucleosidase (Escherichia coli O157:H7, UniProt P0AF14) (P0AF14 whole entry): as the sequence (P0AF14 whole entry, looked up) above

With `Nc1ncnc2c(CN3C[C@H](CSCc4ccccc4)[C@@H](O)C3)c[nH]c12`, the dissociation constant (Kd) (as a rule, the equilibrium constant for the complex coming apart) in assay [1] was determined as 64 pM.

With `Nc1ncnc2c([C@@H]3N[C@H](CSc4ccc(Cl)cc4)[C@@H](O)[C@H]3O)c[nH]c12`, in assay [1], the Kd worked out at 2200 pM.

On to `Nc1ncnc2c([C@@H]3N[C@H](CSCc4ccccc4)[C@@H](O)[C@H]3O)c[nH]c12`, for which, in [1], the equilibrium dissociation constant (Kd) came out at 2100 pM.

For the compound `Nc1ncnc2c(CN3C[C@H](CSc4ccc(Cl)cc4)[C@@H](O)C3)c[nH]c12`, the results for the Kd in assay [2] and in [1] were 0.047 pM and 330 pM, respectively. The Ratio in the assay with Escherichia coli [3] was 1e+08. In addition, the result in the assay on Vibrio cholerae [4] was inactive.

The compound `CSC[C@H]1CN(Cc2c[nH]c3c(N)ncnc23)C[C@@H]1O` displayed a Kd in assay [2] of 0.2 pM. The outcome in the assay with Vibrio cholerae [4], in the assay on Escherichia coli [5] and in the assay with Escherichia coli [6] was inactive. Further, the inhibition (usually the change of the read-out against control, counted positive when it falls) in assay [7] is “Dose-dependent effect”. The IC50 – broadly, the concentration needed to halve the response being measured – in assay [8] turned out to be 600000 pM. The inhibition result in assay [9] and in [10] was “Active” throughout.

As to `CCSC[C@H]1CN(Cc2c[nH]c3c(N)ncnc23)C[C@@H]1O`, in the assay on Vibrio cholerae [4], the result was inactive.

In assay [2], `CCCCSC[C@H]1CN(Cc2c[nH]c3c(N)ncnc23)C[C@@H]1O` registered a Kd of 0.3 pM. The outcome in the assay with Vibrio cholerae [4], with Escherichia coli [5], in the assay with Escherichia coli [6], with Vibrio cholerae [11], in the assay on Vibrio cholerae [12] and with Escherichia coli [13] was inactive. The result with Escherichia coli [14], with Escherichia coli [17] and in the assay with Vibrio cholerae [18] was inactive. For the same compound, the inhibition result in assay [7] was “Dose-dependent effect”. Also, in the assay with Vibrio harveyi, the inhibition entry was “inactive”. Besides, the values for the inhibition at 1 µM with Escherichia coli [15] and in the assay with Vibrio cholerae [16] were 18% and 71%, respectively.

As for `CSC[C@H]1N[C@@H](c2c[nH]c3c(N)ncnc23)[C@H](O)[C@@H]1O`, the Kd in assay [1] was found to be 10000 pM.

Take `CCSC[C@H]1N[C@@H](c2c[nH]c3c(N)ncnc23)[C@H](O)[C@@H]1O`: the Kd in assay [1] came to 1600 pM.

The values are drawn from ChEMBL document CHEMBL1240343, “Transition state analogs of 5'-methylthioadenosine nucleosidase disrupt quorum sensing” (Nat Chem Biol, 2009).
